Four molecules from publication PMC8910004, “Hexokinase 2 Inhibition and Biological Effects of BNBZ and Its Derivatives: The Influence of the Number and Arrangement of Hydroxyl Groups” (International Journal of Molecular Sciences, 2022) can be followed below.

One assay concerns the target T1, Hexokinase 2 (Homo sapiens, UniProt P52789).
T1 construct: gene HK2
T1 sequence (P52789 1-917): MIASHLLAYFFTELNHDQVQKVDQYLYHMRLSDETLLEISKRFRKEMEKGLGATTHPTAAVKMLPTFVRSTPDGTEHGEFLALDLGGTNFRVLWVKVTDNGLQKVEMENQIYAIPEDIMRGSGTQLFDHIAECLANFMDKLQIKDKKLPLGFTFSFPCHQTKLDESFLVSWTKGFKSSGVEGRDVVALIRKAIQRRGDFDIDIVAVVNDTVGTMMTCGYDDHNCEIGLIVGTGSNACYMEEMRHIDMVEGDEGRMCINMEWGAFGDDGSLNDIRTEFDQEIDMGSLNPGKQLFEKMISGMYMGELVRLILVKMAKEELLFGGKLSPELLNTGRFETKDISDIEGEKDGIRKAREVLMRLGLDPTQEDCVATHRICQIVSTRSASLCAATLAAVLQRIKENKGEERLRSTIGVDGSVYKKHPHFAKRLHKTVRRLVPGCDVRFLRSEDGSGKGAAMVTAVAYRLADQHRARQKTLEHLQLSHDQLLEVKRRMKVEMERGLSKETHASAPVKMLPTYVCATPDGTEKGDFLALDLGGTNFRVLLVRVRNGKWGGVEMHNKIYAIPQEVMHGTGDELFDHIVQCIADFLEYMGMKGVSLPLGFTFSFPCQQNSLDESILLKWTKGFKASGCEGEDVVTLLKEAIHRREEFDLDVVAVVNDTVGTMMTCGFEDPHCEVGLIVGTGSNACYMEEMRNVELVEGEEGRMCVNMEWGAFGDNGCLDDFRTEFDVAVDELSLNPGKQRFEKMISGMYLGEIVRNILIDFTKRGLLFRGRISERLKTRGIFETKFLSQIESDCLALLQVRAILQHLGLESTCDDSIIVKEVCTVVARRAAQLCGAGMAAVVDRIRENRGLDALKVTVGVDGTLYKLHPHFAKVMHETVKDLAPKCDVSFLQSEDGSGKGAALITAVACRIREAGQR
The assay can be described thus: in vitro HK2 Inhibitor Screening Kit (G6PDH-coupled colorimetric), […], positive control. Type of assay: biochemical.

Assay [1] addresses T2, Hexokinase 2 (H6-hHK2) (Homo sapiens, UniProt P52789).
T2 construct: gene HK2; N-terminal His6-tagged human HK2, aa 17-917
T2 sequence (P52789 17-917): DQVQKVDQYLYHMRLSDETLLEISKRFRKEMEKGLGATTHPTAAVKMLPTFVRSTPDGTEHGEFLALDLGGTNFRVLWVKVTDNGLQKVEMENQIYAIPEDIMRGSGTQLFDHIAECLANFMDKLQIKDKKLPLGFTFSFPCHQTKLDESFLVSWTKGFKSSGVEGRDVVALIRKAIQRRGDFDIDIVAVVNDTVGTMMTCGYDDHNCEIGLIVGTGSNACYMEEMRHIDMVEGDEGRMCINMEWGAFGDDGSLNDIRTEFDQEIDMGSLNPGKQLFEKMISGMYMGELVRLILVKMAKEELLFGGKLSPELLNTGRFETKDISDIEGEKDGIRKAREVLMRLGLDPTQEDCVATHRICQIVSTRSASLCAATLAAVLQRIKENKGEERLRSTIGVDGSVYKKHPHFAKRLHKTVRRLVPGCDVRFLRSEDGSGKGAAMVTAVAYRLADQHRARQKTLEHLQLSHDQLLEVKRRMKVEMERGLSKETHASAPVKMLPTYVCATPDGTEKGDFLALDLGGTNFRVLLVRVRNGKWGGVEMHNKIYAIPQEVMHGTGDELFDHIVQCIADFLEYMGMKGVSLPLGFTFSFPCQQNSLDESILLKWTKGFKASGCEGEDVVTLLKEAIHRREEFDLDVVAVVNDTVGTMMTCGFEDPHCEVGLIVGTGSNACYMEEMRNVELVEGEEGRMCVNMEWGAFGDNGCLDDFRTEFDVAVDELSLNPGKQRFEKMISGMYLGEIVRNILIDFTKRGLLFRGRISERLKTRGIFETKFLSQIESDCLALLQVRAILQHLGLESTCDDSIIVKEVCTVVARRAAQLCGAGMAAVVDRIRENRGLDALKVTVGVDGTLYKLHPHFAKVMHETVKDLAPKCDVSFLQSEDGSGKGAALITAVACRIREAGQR
Nature of the assay: microscale thermophoresis (RED-Tris-NTA labelled His6-HK2); also inhibits isolated HK2 in kit assay. The class given is binding.

Assay [2] has as its target T2, Hexokinase 2 (H6-hHK2). Nature of the assay: microscale thermophoresis (RED-Tris-NTA labelled His6-HK2). Type of assay: binding. On the technique in general: MST reads how a fluorescent partner responds to local heating, with and without ligand.

The molecule `OC[C@H]1OC(O)C[C@@H](O)[C@@H]1O` (stereo partly shown) [2DG, 2-deoxyglucose] returned an activity at 5 µM on Hexokinase 2 of 9.9 ± 0.5%.

Regarding `O=C(N/N=C/c1ccc(O)c(O)c1O)c1ccc([N+](=O)[O-])cc1` [2a, (E)-N′-(2,3,4-trihydroxybenzylidene)-4-nitrobenzohydrazide], the Kd (as a rule, the concentration at which binding is half-saturated) on Hexokinase 2 (H6-hHK2) [1] lay in the range of 8.83 to 11 µM. In turn, `O=C(N/N=C/c1ccc(O)cc1O)c1ccc([N+](=O)[O-])cc1` [2b, (E)-N′-(2,4-dihydroxybenzylidene)-4-nitrobenzohydrazide] yielded a Kd on Hexokinase 2 (H6-hHK2) [2] of 58.9 µM. That is a double-digit micromolar value.

As for `O=C(O)C(=O)CBr` [3BP, 3-bromopyruvate], at Hexokinase 2, the activity at 5 µM came to 2.5 ± 0.4%.
